Laboratory results: publication PMC11623267, “Inhibitors of malaria parasite cyclic nucleotide phosphodiesterases block asexual blood-stage development and mosquito transmission” (Science Advances, 2024)
Where two headings read alike, the source gives them in different places. Each block holds one compound with its values, some of them ahead of it.

Assays:
[1] = system: PDE activity in cell extracts of malaria parasites; parameters: method as in PMID 16038615, PMID 25951195; details: read-out: IC50 against PDE activity in cell extracts; cited from earlier work
[2] = system: P. falciparum (clone 3D7); assay: Parasite reduction ratio (PRR) assay; type: cell-based, Plasmodium falciparum; details: for Slope: 10× EC50, 3D7 killing profile
Procedure: The in vitro killing profile of compounds was determined by monitoring the ability of parasites to recover following treatment with a compound of interest using a previously reported approach ([50]), which allowed calculation of the PRR ([51]). […] To quantify the number of viable parasites following treatment, four independent sets of threefold serial dilutions were performed on each sample, which were assayed for the presence or absence of parasites after 28 days using the LDH assay, and the number of viable parasites was determined by the number of wells showing growth. PRR and PCT99.9% were calculated as previously reported ([50]).

[3] = system: P. falciparum clinical isolates from Porto Velho, Brazil; assay: Ex vivo schizont maturation assay, Brazilian clinical isolates; type: cell-based, Plasmodium falciparum; details: Plasmodium falciparum
Procedure: Only monoinfected patients with P. falciparum with parasitemia between 2000 and 80,000 parasites/μl and with at least 70% of ring-stage parasites were recruited. Patients who had used an antimalarial in the previous month and/or presented with symptoms of severe malaria were excluded from the study. The study cohort comprised 24 patients living in this highly endemic area. A peripheral venous blood sample (5 ml) was collected from each individual by venipuncture in heparin-containing tubes and immediately used in the ex vivo drug susceptibility assay using preprepared plates containing diluted antimalarial compounds. […] Last, 20 μl of each dilution was transferred into the ex vivo assay plate and diluted 10-fold into the final assay medium containing parasites. For the infected blood preparation, 5 ml of whole blood was centrifuged at 800g for 10 min, and the plasma and buffy coat were removed. […] Control assays on a 3D7 laboratory isolate were performed with medium supplemented with human serum (20%). The iRBC (180 μl per well) were distributed in the predosed drug plate. […] Control wells containing drug-free iRBCs were cultured with complete medium. The parasite-drug incubation was terminated when 40% of the ring stages reached the schizont stage (at least three distinct nuclei per parasite) in the drug-free control wells. Thick blood films were then made from each well, dried, stained with 5% Giemsa solution for 30 min, and examined microscopically. The number of schizonts per 200 asexual-stage parasites was determined for each drug concentration and then normalized by comparing with the schizont number in the drug-free control wells [considered as 100% ([64])]. The half-maximal drug inhibitory response (EC50) was estimated by curve fitting using software from the OriginLab Corporation, Northampton, MA, USA and comparing with parasite growth in the drug-free controls.

[4] = system: P. falciparum clinical isolates from Tororo and Busia Districts of Uganda; assay: Ex vivo 72-hour SYBR Green assay, Ugandan clinical isolates; type: cell-based, Plasmodium falciparum; details: Plasmodium falciparum
Text: Clinical isolates were from the Tororo District of Uganda, located in the central-eastern part of the county near the Kenya border. Tororo and surrounding areas have high-intensity, year-round malaria transmission. […] Patients reporting use of antimalarial treatment within the previous 30 days or with evidence of an infection with other Plasmodium species were excluded. Informed consent was obtained from patients and/or primary care givers (depending on age); children aged 8 to 17 years provided assent. Two to 5 ml of blood was collected by venipuncture in a heparin tube. Samples were delivered to the adjacent IDRC laboratory at Tororo District Hospital or transported by car from Masafu Hospital on the day of collections for storage of blood spots on filter paper (for isolation of nucleic acids) and initiation of ex vivo culture of malaria parasites. Treatment involved a standard therapeutic regimen for uncomplicated falciparum malaria, which was a 3-day course of the artemisinin-based combination therapy (ACT), artemether-lumefantrine. In Uganda, at the time of sampling, there was widespread resistance to the antifolate drugs due to mutant pfdhfr/pfdhps alleles. […] Chloroquine was prepared at 10 mM in water. Stock solutions were stored at −20°C. Working solutions were freshly prepared from a single aliquot within 4 hours of the susceptibility test and stored at 4°C.
(§1) Samples were delivered to the adjacent IDRC laboratory at Tororo District Hospital or transported by car from Masafu Hospital on the day of collection for storage of blood spots on filter paper (for isolation of nucleic acids) and initiation of ex vivo culture of malaria parasites. […] Before assay, 10 mM antimalarial stock compounds were diluted as necessary in DMSO and stored at −20°C. […] Compounds were serially diluted threefold in a 96-well assay plate in complete medium to a final volume of 50 μl, in columns 1 to 10, with concentrations optimized to capture full dose-response curves. Column 11 contained compound-free controls, while column 12 contained uninfected human RBC controls. Parasite culture (150 μl) was added to columns 1 to 11 of the assay plate with a final volume of 200 μl per well, 0.2% parasitemia, and 2% hematocrit. […] Thawed plates were incubated with SYBR Green lysis buffer for 1 hour in the dark as previously reported ([62]). Fluorescence was quantified using a BMG Fluostar Optima plate reader at an excitation of 485 nm and an emission of 530 nm, and data were plotted using GraphPad Prism 7. The data were curve fit with a variable slope function to estimate IC50 values. For each isolate, a Z′ factor to assess assay quality was calculated from positive controls (eight drug-free wells) and negative controls (eight parasite-free, red cell control wells). Z′ values over 0.5 were considered good assays, but each curve was also examined by eye for suitability. Some assays with Z′ below 0.5 may be considered valid depending on factors such as the SE of the curve-fit IC50.

P. falciparum 3D7 = assay: Ex vivo 72-hour SYBR Green assay, 3D7 control (Uganda); type: cell-based, Plasmodium falciparum; details: Plasmodium falciparum, 3D7, read-out: EC50 lab strain 3D7
Procedure: as §1

P. falciparum Dd2 = assay: Ex vivo 72-hour SYBR Green assay, Dd2 control (Uganda); type: cell-based, Plasmodium falciparum; details: Plasmodium falciparum, DD2, read-out: EC50 lab strain Dd2
Procedure: as §1

HepG2 cells = assay: HepG2 cytotoxicity; type: cell-based
Text: Table 1. Key activity data for the three main chemical subseries against ABS parasites, parasite fractions, and HepG2 cells. ND, not determined; ×/÷ is the geometric mean with geometric SD. | column: HepG2 EC50 (nM) (selectivity index)

P. falciparum Dd2-B2 = assay: 72-hour flow cytometry EC50 assay, Dd2-B2 parental line; type: cell-based, Plasmodium falciparum; details: Plasmodium falciparum, DD2, read-out: EC50 Dd2-B2 parental line
Procedure: (§2) Stocks of SAL-0010003 (5-benzyl), SAL-0010355 (5-aryl), and SAL-0010419 (2-alkyl) were made at 10 and 1 mM in DMSO. Aliquots in use were stored at −20°C, and long-term storage was at −80°C. All in vitro studies were done such that the final DMSO concentration was <0.5%. P. falciparum ABS parasites were cultured at 3% hematocrit in human O+ RBCs in RPMI 1640 medium, supplemented with 25 mM Hepes, 50 mg L-hypoxanthine, 2 mM L-glutamine, 0.225% sodium bicarbonate, 0.5% (w/v) AlbuMAX II (Invitrogen) and gentamycin (10 μg/ml), in modular incubator chambers (Billups-Rothenberg) at 5% O2, 5% CO2, and 90% N2 at 37°C. Dd2-B2 (obtained from T. Wellems, National Institute of Allergy and Infectious Diseases, National Institutes of Health) is a genetically homogenous line that was cloned from Dd2 by limiting dilution. To define the EC50 and EC90 values of ABS parasites, Dd2-B2 ring-stage cultures at 0.2% parasitemia and 1% hematocrit were exposed for 72 hours to a range of 10 drug concentrations that were twofold serially diluted in duplicates along with drug-free controls. Parasite survival was assessed by flow cytometry on an iQue flow cytometer (Sartorius) using SYBR Green and MitoTracker Deep Red FM (Life Technologies) as nuclear stain and vital dyes, respectively. After determination of the EC50 and EC90 values for the three compounds with the P. falciparum Dd2-B2 clone, one single-step selection was set up using 2 × 10^5 parasites in each well of a 96-well plate at a starting concentration of 3× EC90. Parasites were cleared from the culture rapidly, and cultures were screened three times weekly by flow cytometry and counted as positive for recrudescence when the overall parasitemia reached 0.3% and the parasites were visible on a blood smear. DNA was extracted from recrudescent lines using a QIAGEN QIAamp Blood Mini Kit, and libraries were prepared with the Illumina DNA Prep kit for whole-genome sequencing on the Illumina MiSeq using a V3 2 × 300–base pair flow cell.

[5] = system: P. falciparum Dd2-B2 lines selected under drug pressure; assay: 72-hour flow cytometry EC50 assay, lines selected under drug pressure; type: cell-based, Plasmodium falciparum; details: for EC50: Plasmodium falciparum
Procedure: Three examples of an additional compound series developed independently [NPD-2958, NPD-3518 ([31]), and NPD-3738; fig.
as §2

[6] = read-out: EC50 clinical isolates, Gmean (geometric mean)
[7] = read-out: EC50 clinical isolates, Median
[8] = read-out: EC50 clinical isolates, Range

Compound: CC(C)Cn1c(=O)n(C)c(=O)c2[nH]cnc21 [3-isobutyl-1-methylxanthine]
IC50 [1]: > 100 µM

EC50 ([3]; read-out: EC50 range, clinical isolates): 0.626 to 2.6 µM
EC50 ([3]; read-out: Median EC50, clinical isolates): 1.2 µM
EC50 [4, 6]: 0.013 µM
EC50 [4, 7]: 0.014 µM
EC50 [4, 8]: 0.002 to 0.025 µM
EC50 (P. falciparum 3D7): 0.0094 µM
EC50 (P. falciparum Dd2): 0.347 µM
Compound: CCN(CC)CCCC(C)Nc1ccnc2cc(Cl)ccc12 (stereo not shown) [Chloroquine, reference compound]
Lag phase ([2]; 10× EC50, 3D7): 0 h
PCT99.9% (hours taken to kill 99.9% of the parasites) ([2]; 10× EC50, 3D7): 39.0 h
Slope [2]: −0.0717 ± 0.0037

Compound: CC(C)COc1ccc(C(=O)N2CC(N(C)C)C2)cc1-c1nc2c(C(C)C)n[nH]c2c(=O)[nH]1 [SAL-0010355]
EC50 (HepG2 cells; Homo sapiens, HepG2): > 25 µM
HepG2 selectivity index (HepG2 cells; value in brackets after HepG2 EC50): 1,185
EC50 (P. falciparum Dd2-B2): 0.0692 µM
EC50 ([5]; DD2, read-out: EC50, line selected with SAL-0010355, Well B7): 0.43 µM
EC50 ([5]; DD2, read-out: EC50, line selected with SAL-0010355, Well D7): 0.469 µM
EC50 ([5]; DD2, read-out: EC50, line selected with SAL-0010355, Well D9): 0.371 µM
Mean fold change in EC50 ([5]; selected lines vs Dd2-B2 parental line, ±SD): 6.1 ± 0.7 fold
EC50 shift, line selected with SAL-0010355, Well B7 ([5]; vs Dd2-B2): 6.2 fold
EC50 shift, line selected with SAL-0010355, Well D7 ([5]; vs Dd2-B2): 6.8 fold
EC50 shift, line selected with SAL-0010355, Well D9 ([5]; vs Dd2-B2): 5.4 fold

Compound: CCc1nc(N)nc(N)c1-c1ccc(Cl)cc1 [Pyrimethamine, reference compound]
Lag phase ([2]; 10× EC50, 3D7): 24 h
Log PRR ([2]; 10× EC50, 3D7): 3.2
PCT99.9% (hours taken to kill 99.9% of the parasites) ([2]; 10× EC50, 3D7): 63.1 h
Slope [2]: −0.0667 ± 0.0059
EC50 [4, 6]: 41.6 µM
EC50 [4, 7]: 39.3 µM
EC50 [4, 8]: 15.9 to 196 µM
EC50 ([4]; read-out: Geometric mean EC50, Ugandan isolates (Fig. 3B)): 41.6 µM
EC50 (P. falciparum 3D7): 0.046 µM
EC50 (P. falciparum Dd2): 21.7 µM

Compound: COc1ccc(C2CNC(=O)C2)cc1OC1CCCC1 (stereo not shown) [rolipram]
IC50 [1]: > 100 µM

Compound: Cn1c(=O)c2c(ncn2C)n(C)c1=O [caffeine]
IC50 [1]: > 100 µM

Compound: Cn1c(=O)c2[nH]cnc2n(C)c1=O [theophylline]
IC50 [1]: > 100 µM
